From publication PMC5595280, “Cytotoxicity and anti-tumor effects of new ruthenium complexes on triple negative breast cancer cells” (PLoS ONE, 2017)

What was measured:
HSA = HSA (Homo sapiens, UniProt P02768); assay: HSA tryptophan fluorescence quenching; type: binding
Protocol: For fluorescence measurements, the HSA concentration in Tris–HCl buffer was kept constant in all the samples, while the complex concentration was increased from 0.50 to 50 μM, and quenching of the emission intensity of the HSA tryptophan residues at 305 nm (excitation wavelength 270 nm) was monitored at different temperatures (25°C and 37°C). The experiments were carried out in triplicate and analysed using the classical Stern-Volmer equation. The binding constant (Kb) and number of complexes bound to HSA (n) were determined by plotting the double log graph of the fluorescence data using: log [(F0-F)/F] = log Kb + nlog[Q]. The thermodynamic parameter (ΔH) was calculated from equation: ln (K2/K1) = [(1/T1)-(1/T2)]ΔH/R, where K1 and K2 are the binding constants at temperatures T1 and T2, and R is the gas constant. Furthermore, the change in free energy (ΔG) and entropy (ΔS) were calculated from the following equation: ΔG = -RT lnK = ΔH − TΔS.
Human serum albumin (HSA) is the most abundant protein in the blood and cerebrospinal fluid and plays a fundamental role in the distribution of essential transition metal ions in the human body. Moreover, HSA is an important physiological transporter of the essential metal ions Cu^2+, and Zn^2+ in the bloodstream. […] The fluorescence spectrum is essentially that of tryptophan residue; contribution of tyrosine is relatively minor. In order to determine the protein binding affinity of complexes (1–4), tryptophan emission quenching experiments were carried out by adding the complexes in increasing concentration (0–50 μM) to HSA at two different temperatures and following the decrease in fluorescence intensities (Fig 6D). The results point out a good linearity at the two different temperatures. The binding constants, KSV, calculated from the Stern-Volmer equation are presented on Table 2.

MCF-10A cells = assay: MTT cell proliferation assay; type: cell-based, human; conditions: 24 h of incubation, read-out: IC50 ±SEM MCF-10A
Protocol: (§1) MDA-MB-231 human breast tumor cells and MCF7 human breast tumor cells, obtained from Rio de Janeiro Cell Bank, were maintained at 37°C in 5% CO2 in DMEM medium containing fetal bovine serum (FBS) 10% (Vitrocell). MCF-10A, a non-tumor breast cell line, obtained from Rio de Janeiro Cell Bank, was cultivated in DMEM/F12 medium containing horse serum (HS) 5%, EGF (0.02 mg/mL); hydrocortisone (0.05 mg/mL); cholera toxin (0.001 mg/mL) and insulin (0.01 mg/mL). Both media contained penicillin (100 UI/mL), streptomycin ([…]) and L-glutamine (2 mM).
(§2) Proliferation assays were performed as described earlier. Briefly, cells lines were prepared in a concentration of 1x10^4 cells/100 μL, in complete medium (with 10% FBS), and plated on sterile 96-well plates for 24 h. The culture medium was removed from the wells and a new one, supplemented with 10% FBS and containing different concentrations of (1) [Ru(SO4)(dppb)(bipy)] (2) [Ru(CO3)(dppb)(bipy)], (3), [Ru(C2O4)(dppb)(bipy)], or (4) [Ru(CH3CO2)(dppb)(bipy)]PF6, was added to the wells. Cells were incubated for 24 h under the same conditions as described above. Cell proliferation assay was performed in comparison with untreated control. After incubation, the culture medium of each well was removed and a solution containing MTT (1 mg/mL) was added (100 μL/well). The plates were then kept at 37°C for 4 h and the formed crystals were dissolved in DMSO. The absorbance was read on an ELISA plate reader at a wavelength of 540 nm. […] The selectivity index (SI) was calculated as the ratio IC50 (MCF-10A) / IC50 (MDA-MB-231).
(§3) Each experiment was repeated three times in triplicate and a standard error mean was calculated. Shapiro-Wilk’s test was used to verify data normality. As normal distribution was present, the results were compared statistically with a one-way or two-way analysis of variance (ANOVA). […] The data were analysed and IC50 calculations were made using Hill’s equation in the GraphPad Prism software (version 6.05).

MDA-MB-231 cells [1] = assay: MTT cell proliferation assay; type: cell-based, human; conditions: 24 h of incubation, read-out: IC50 ±SEM MDA-MB-231
Protocol: as §1, §2, §3

pBR322 plasmid DNA = assay: Agarose gel electrophoresis of plasmid DNA; type: binding; conditions: Ri 0.50, 18 h, 37°C
Protocol: Ten microliters of pBR322 plasmid DNA in a Tris-HCl buffer were incubated at 37°C for 18 h with molar ratios between 0.12 and 0.5. After incubation, 5 μL of each sample was separated by electrophoresis in a 1% agarose gel for 45 min at 100V using a Tris borate–EDTA buffer (TBE) and stained with ethidium bromide ([…] ethidium bromide per 40 mL agarose gel mixture). Samples of DNA with DMSO were used as controls. The DNA bands were visualized as an image using a UV light transilluminator (ChemiDoc MP, BioRad Laboratories).
The influence of the compounds on the tertiary structure of DNA was determined by their ability to modify the electrophoretic mobility of forms of pBR322 plasmid DNA (Fig 6C). Agarose gel electrophoresis was performed using pBR322 plasmid DNA in the absence and presence of the complexes. […] In Ri 0.12 and 0.25 complexes (1–3) show the corresponding open circular, linear and super coiled form. […] This means that the degree of super helicity of the DNA molecules has been altered, in the same way as that described previously for other coordination platinum(II) and palladium (II) compounds containing 7-azaindolyl ligand [36].

MDA-MB-231 cells [2] = assay: Cell adhesion to ECM proteins; type: cell-based, human
Protocol: The effects of complex (4) on the adhesion of MDA-MB-231 cells were analyzed in 96-well plates (Corning) as described earlier. Vitronectin (1.0 μg), laminin (0.3 μg) or fibronectin (0.3 μg) immobilized on the plates in a cell adhesion buffer (20 mM HEPES, 150 mM NaCl, 5 mM KCl, 1 mM MgSO4 and 1 mM MnCl2 pH 7.35), overnight at 4°C. Collagen type I (10 μg) was dissolved in acetic acid (0.1%) and coated on the wells. On the next day, wells were blocked with adhesion buffer containing 1% BSA solution for 1h and then washed with 100 μL per well of adhesion buffer. Cells (5 x 10^4/100 μL) were incubated for 30 min with different concentrations of the complex (4) at 37°C 5% CO2 and then plated and incubated under the same conditions for a further 1h. Then the non-adhered cells were gently removed by washing and attached cells were fixed with 100 μL 70% ethanol for 10 min. Cells were stained with 0.5% crystal violet for 20min and the excess dye was removed by washing with PBS. The stained cells were diluted in 100 μL of 1% solution of sodium dodecyl sulfate (SDS) for 30min and reading of the plates was performed on ELISA reader at 595 nm wavelength.

Chain of HSA (P02768 25-609): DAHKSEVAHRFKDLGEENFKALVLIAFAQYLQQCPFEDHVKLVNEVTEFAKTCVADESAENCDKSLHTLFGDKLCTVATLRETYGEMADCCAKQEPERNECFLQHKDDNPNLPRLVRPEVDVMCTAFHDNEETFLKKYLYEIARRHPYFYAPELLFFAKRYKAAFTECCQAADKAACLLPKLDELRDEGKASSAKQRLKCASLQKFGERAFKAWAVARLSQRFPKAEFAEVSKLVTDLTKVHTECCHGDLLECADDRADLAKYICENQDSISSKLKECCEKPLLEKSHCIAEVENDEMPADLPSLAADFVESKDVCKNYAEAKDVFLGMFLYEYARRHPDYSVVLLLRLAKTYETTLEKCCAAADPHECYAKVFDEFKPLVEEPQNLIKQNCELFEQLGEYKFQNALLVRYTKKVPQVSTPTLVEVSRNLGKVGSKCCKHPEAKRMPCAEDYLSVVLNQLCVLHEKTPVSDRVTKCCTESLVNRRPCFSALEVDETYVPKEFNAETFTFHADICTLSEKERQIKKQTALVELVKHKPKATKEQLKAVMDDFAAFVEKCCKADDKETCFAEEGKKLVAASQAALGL

CC(=O)[O-].F[P-](F)(F)(F)(F)F.[Ru+2].c1ccc(-c2ccccn2)nc1.c1ccc(P(CCCCP(c2ccccc2)c2ccccc2)c2ccccc2)cc1 [Complex (4), [Ru(CH3CO2)(dppb)(bipy)]PF6]
Kq (HSA) (HSA; T 298): 4.95e+13 M⁻¹ s⁻¹
Ksv (HSA) (HSA; T 298): 4.74 ± 0.70 x10^4 M^-1
n (number of binding sites, HSA) (HSA; T 298): 1.20
ΔS (HSA) (HSA; complex-HSA system): 110.13 J.mol^-1K
ΔH (HSA) (HSA; from binding constants at 298 and 310): 0.359 kcal/mol
IC50 (MCF-10A cells): 48.89 ± 0.09 µM
IC50 (MDA-MB-231 cells [1]): 31.16 ± 0.04 µM
electrophoretic mobility of super coiled pBR322 band (pBR322 plasmid DNA): increased the electrophoretic mobility
inhibition of cell adhesion to type I collagen (MDA-MB-231 cells [2]; 20 μM): approximately 35%
inhibition of cell adhesion to fibronectin, laminin and vitronectin (MDA-MB-231 cells [2]; 40 μM): about 65%
inhibition of cell adhesion to type I collagen (MDA-MB-231 cells [2]; 40 μM): ~50%
effect on cell adhesion to fibronectin, laminin and vitronectin (MDA-MB-231 cells [2]; all concentrations tested): inhibited cell adhesion
